For data set [1], the system named is Mus musculus. The data set is described as follows: Ratio of treated to that of untreated tumor-bearing control animals at 6.25 mg/kg intraperitoneally in CD2F1 mice was determined. The format is functional. The note with it: route intraperitoneal.
Data set [2] has as its system Mus musculus. Nature of the data set: Body weight change of test animals to that of control was determined after injection at 25 mg/kg intraperitoneally in CD2F1 mice. The format is functional. As to conditions: route intraperitoneal.
The subject of data set [3] is Mus musculus. Nature of the data set: Toxicity day survivors was determined by the ratio of animals survived to that of test animals at 50 mg/kg intraperitoneally in CD2F1 mice; 6/6. It is filed as organism-based. On the set-up: dose 50 mg/kg, route intraperitoneal. The note with it: in vivo, ip.
Data set [4] deals with Mus musculus. The data set is described as follows: Ratio of treated to that of untreated tumor-bearing control animals at 50 mg/kg intraperitoneally in CD2F1 mice was determined. It is filed as functional. As to conditions: route intraperitoneal.
The test system of data set [5] is Mus musculus. The data set is described as follows: Net log cell kill was determined after injecting 25 mg/kg intraperitoneally in CD2F1 mice. It is filed as functional. As to conditions: route intraperitoneal.
The test system of data set [6] is Mus musculus. The data set is described as follows: Toxicity day survivors was determined by the ratio of animals survived to that of test animals at 25 mg/kg intraperitoneally in CD2F1 mice; 6/6. The format is organism-based. More on the design: dose 25 mg/kg, route intraperitoneal. As to conditions: in vivo, ip.
Data set [7] deals with Mus musculus. The data set is described as follows: Body weight change of test animals to that of control was determined after injection at 6.25 mg/kg intraperitoneally in CD2F1 mice. As to conditions: route intraperitoneal. It is filed as functional.
For data set [8], the system named is Mus musculus. The data set is described as follows: Body weight change of test animals to that of control was determined after injection at 100 mg/kg intraperitoneally in CD2F1 mice. The format is functional. As to conditions: route intraperitoneal.
Data set [9] concerns Mus musculus. Nature of the data set: Body weight change of test animals to that of control was determined after injection at 12.5 mg/kg intraperitoneally in CD2F1 mice. It is filed as functional. As to conditions: route intraperitoneal.
In data set [10] the test system is Mus musculus. The data set is described as follows: Toxicity day survivors was determined by the ratio of animals survived to that of test animals at 100 mg/kg intraperitoneally in CD2F1 mice; 2/6. It is filed as organism-based. More on the design: dose 100 mg/kg, route intraperitoneal. As to conditions: in vivo, ip.
The subject of data set [11] is Mus musculus. Nature of the data set: Net log cell kill was determined after injecting 6.25 mg/kg intraperitoneally in CD2F1 mice. The format is functional. As to conditions: route intraperitoneal.
In data set [12] the test system is Mus musculus. The data set is described as follows: Toxicity day survivors was determined by the ratio of animals survived to that of test animals at 6.25 mg/kg intraperitoneally in CD2F1 mice; 6/6. The format is organism-based. More on the design: dose 6.25 mg/kg, route intraperitoneal. As to conditions: in vivo, ip.
For data set [13], the system named is Mus musculus. Nature of the data set: Toxicity day survivors was determined by the ratio of animals survived to that of test animals at 12.5 mg/kg intraperitoneally in CD2F1 mice; 6/6. The format is organism-based. On the set-up: dose 12.5 mg/kg, route intraperitoneal. The note with it: in vivo, ip.
In data set [14] the test system is Mus musculus. Nature of the data set: Ratio of treated to that of untreated tumor-bearing control animals at 25 mg/kg intraperitoneally in CD2F1 mice was determined. It is filed as functional. As to conditions: route intraperitoneal.
The subject of data set [15] is Mus musculus. The data set is described as follows: Net log cell kill was determined after injecting 12.5 mg/kg intraperitoneally in CD2F1 mice. The format is functional. The note with it: route intraperitoneal.
Data set [16] has as its system Mus musculus. Nature of the data set: Body weight change of test animals to that of control was determined after injection at 50 mg/kg intraperitoneally in CD2F1 mice. It is filed as functional. As to conditions: route intraperitoneal.
Data set [17] has as its system Mus musculus. Nature of the data set: Net log cell kill was determined after injecting 50 mg/kg intraperitoneally in CD2F1 mice. It is filed as functional. As to conditions: route intraperitoneal.
Data set [18] relates to Mus musculus. Nature of the data set: Ratio of treated to that of untreated tumor-bearing control animals at 12.5 mg/kg intraperitoneally in CD2F1 mice was determined. It is filed as functional. The note with it: route intraperitoneal.
The test system of data set [19] is Mus musculus. Nature of the data set: Toxicity day survivors was determined by the ratio of animals survived to that of test animals at 15 mg/kg intraperitoneally in CD2F1 mice; 5/5. It is filed as organism-based. More on the design: dose 15 mg/kg, route intraperitoneal. The note with it: in vivo, ip.
Data set [20] relates to Mus musculus. The data set is described as follows: Ratio of treated to that of untreated tumor-bearing control animals at 1.88 mg/kg intraperitoneally in CD2F1 mice was determined. The format is functional. As to conditions: route intraperitoneal.
In data set [21] the test system is Mus musculus. The data set is described as follows: Toxicity day survivors was determined by the ratio of animals survived to that of test animals at 3.75 mg/kg intraperitoneally in CD2F1 mice; 6/6. It is filed as organism-based. The note with it: in vivo, ip. More on the design: dose 3.75 mg/kg, route intraperitoneal.
Data set [22] relates to Mus musculus. Nature of the data set: Body weight change of test animals to that of control was determined after injection at 15 mg/kg intraperitoneally in CD2F1 mice. The format is functional. The note with it: route intraperitoneal.
In data set [23] the test system is Mus musculus. Nature of the data set: Ratio of treated to that of untreated tumor-bearing control animals at 7.5 mg/kg intraperitoneally in CD2F1 mice was determined. As to conditions: route intraperitoneal. The format is functional.
Data set [24] concerns Mus musculus. The data set is described as follows: Ratio of treated to that of untreated tumor-bearing control animals at 3.75 mg/kg intraperitoneally in CD2F1 mice was determined. The format is functional. As to conditions: route intraperitoneal.
The subject of data set [25] is Mus musculus. The data set is described as follows: Body weight change of test animals to that of control was determined after injection at 1.88 mg/kg intraperitoneally in CD2F1 mice. The note with it: route intraperitoneal. It is filed as functional.
Data set [26] concerns Mus musculus. Nature of the data set: Net log cell kill was determined after injecting 15 mg/kg intraperitoneally in CD2F1 mice. The format is functional. The note with it: route intraperitoneal.
Data set [27] has as its system Mus musculus. Nature of the data set: Body weight change of test animals to that of control was determined after injection at 7.5 mg/kg intraperitoneally in CD2F1 mice. As to conditions: route intraperitoneal. It is filed as functional.
Data set [28] concerns Mus musculus. The data set is described as follows: Net log cell kill was determined after injecting 7.5 mg/kg intraperitoneally in CD2F1 mice. As to conditions: route intraperitoneal. It is filed as functional.
Data set [29] has as its system Mus musculus. The data set is described as follows: Toxicity day survivors was determined by the ratio of animals survived to that of test animals at 1.88 mg/kg intraperitoneally in CD2F1 mice; 6/6. The format is organism-based. On the set-up: dose 1.88 mg/kg, route intraperitoneal. As to conditions: in vivo, ip.
Data set [30] concerns Mus musculus. Nature of the data set: Toxicity day survivors was determined by the ratio of animals survived to that of test animals at 7.5 mg/kg intraperitoneally in CD2F1 mice; 6/6. The format is organism-based. The note with it: in vivo, ip. More on the design: dose 7.5 mg/kg, route intraperitoneal.
The subject of data set [31] is Mus musculus. The data set is described as follows: Net log cell kill was determined after injecting 1.88 mg/kg intraperitoneally in CD2F1 mice. It is filed as functional. As to conditions: route intraperitoneal.
Data set [32] concerns Mus musculus. The data set is described as follows: Toxicity day survivors was determined by the ratio of animals survived to that of test animals at 60 mg/kg intraperitoneally in CD2F1 mice; 4/6. It is filed as organism-based. More on the design: dose 60 mg/kg, route intraperitoneal. As to conditions: in vivo, ip.
Data set [33] concerns Mus musculus. The data set is described as follows: Body weight change of test animals to that of control was determined after injection at 3.75 mg/kg intraperitoneally in CD2F1 mice. The format is functional. As to conditions: route intraperitoneal.
Data set [34] deals with Mus musculus. The data set is described as follows: Body weight change of test animals to that of control was determined after injection at 60 mg/kg intraperitoneally in CD2F1 mice. The format is functional. As to conditions: route intraperitoneal.
Data set [35] has as its system Mus musculus. The data set is described as follows: Body weight change of test animals to that of control was determined after injection at 30 mg/kg intraperitoneally in CD2F1 mice. It is filed as functional. As to conditions: route intraperitoneal.
Data set [36] deals with Mus musculus. Nature of the data set: Toxicity day survivors was determined by the ratio of animals survived to that of test animals at 30 mg/kg intraperitoneally in CD2F1 mice; 4/6. The format is organism-based. More on the design: dose 30 mg/kg, route intraperitoneal. As to conditions: in vivo, ip.
Data set [37] deals with Mus musculus. Nature of the data set: Net log cell kill was determined after injecting 3.75 mg/kg intraperitoneally in CD2F1 mice. The note with it: route intraperitoneal. It is filed as functional.
Data set [38] concerns Mus musculus. Nature of the data set: Ratio of treated to that of untreated tumor-bearing control animals at 15 mg/kg intraperitoneally in CD2F1 mice was determined. The format is functional. As to conditions: route intraperitoneal.

Regarding `Cc1c(COC(=O)NC(C)C)c(COC(=O)NC(C)C)c2n1CCc1ccccc1-2`, the T/C (usually the result in the treated group divided by that in the control group, in per cent) with Mus musculus [1] was found to be 153%; in the data set on Mus musculus [4], 174%; in the data set with Mus musculus [14], 166%; in the data set with Mus musculus [18], 157%. Further, the T-C with Mus musculus [2] is -4.2 g; with Mus musculus [7] it was -0.9 g; in the data set on Mus musculus [8] it was -3.8 g; with Mus musculus [9] it was -2.6 g; with Mus musculus [16], -4 g. Also, the TDS in the data set with Mus musculus [3] amounted to 6; in the data set with Mus musculus [6] it was 6; in the data set on Mus musculus [10], 2; in the data set on Mus musculus [12] it was 6; with Mus musculus [13] it was 6. For the same molecule, the KE in the data set on Mus musculus [5] is on record as 2.24; in the data set on Mus musculus [11], 1.28; in the data set with Mus musculus [15] it was 1.6; in the data set with Mus musculus [17], 2.82.

Regarding `COc1ccc2c(c1)CCn1cc(COC(=O)NC(C)C)c(COC(=O)NC(C)C)c1-2`, the TDS in the data set on Mus musculus [19] was 5; in the data set with Mus musculus [21], 6; in the data set with Mus musculus [29] it was 6; in the data set with Mus musculus [30], 6; in the data set on Mus musculus [32], 4; with Mus musculus [36], 4. For the same molecule, the T/C with Mus musculus [20] is 174%; with Mus musculus [23], 232%; in the data set with Mus musculus [24] it was 194%; with Mus musculus [38], 125%. Besides, the T-C in the data set on Mus musculus [22] is reported as -3 g; with Mus musculus [25], -1.8 g; with Mus musculus [27], -4.8 g; in the data set on Mus musculus [33], -3.4 g; with Mus musculus [34], -4.6 g; with Mus musculus [35] it was -3.1 g. In addition, the KE in the data set with Mus musculus [26] is -1.07; with Mus musculus [28] it was 5.83; in the data set with Mus musculus [31], 2.18; in the data set on Mus musculus [37] it was 3.46.
